The test deals with S. aureus GyrB ATPase (Staphylococcus aureus, UniProt P0A0K8). Nature of the test: biochemical. As to conditions: compound at 1 μM; one value per test if tested more than once; read-out: % Inhibition of S. aureus GyrB ATPase. An outline of the steps:
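IC50 values derive from 10-point titrations of compound (in DMSO). Phosphate formed from 250 μM ATP was quantified by acidic molybdate/malachite green after quenching.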
Sequence of S. aureus GyrB ATPase (P0A0K8 whole entry): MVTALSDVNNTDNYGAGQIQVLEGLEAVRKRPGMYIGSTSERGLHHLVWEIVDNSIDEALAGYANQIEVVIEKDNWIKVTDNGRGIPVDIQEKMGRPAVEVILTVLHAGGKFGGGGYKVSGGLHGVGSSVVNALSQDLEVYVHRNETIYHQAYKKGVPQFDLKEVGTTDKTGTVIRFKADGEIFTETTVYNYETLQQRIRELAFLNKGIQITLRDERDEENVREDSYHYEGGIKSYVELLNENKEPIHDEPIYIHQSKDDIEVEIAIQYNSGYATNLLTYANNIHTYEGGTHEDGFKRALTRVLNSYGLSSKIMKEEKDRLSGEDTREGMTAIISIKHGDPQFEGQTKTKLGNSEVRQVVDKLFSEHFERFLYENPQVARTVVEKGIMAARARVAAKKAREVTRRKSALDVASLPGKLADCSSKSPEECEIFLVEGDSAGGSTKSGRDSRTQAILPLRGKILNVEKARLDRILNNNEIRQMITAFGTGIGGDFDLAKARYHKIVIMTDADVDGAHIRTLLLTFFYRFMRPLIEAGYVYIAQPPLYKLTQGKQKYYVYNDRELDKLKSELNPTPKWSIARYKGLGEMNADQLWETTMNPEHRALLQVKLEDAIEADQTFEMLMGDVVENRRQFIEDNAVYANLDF
Sequence of S. aureus GyrB ATPase (P0AES4 whole entry, further chain): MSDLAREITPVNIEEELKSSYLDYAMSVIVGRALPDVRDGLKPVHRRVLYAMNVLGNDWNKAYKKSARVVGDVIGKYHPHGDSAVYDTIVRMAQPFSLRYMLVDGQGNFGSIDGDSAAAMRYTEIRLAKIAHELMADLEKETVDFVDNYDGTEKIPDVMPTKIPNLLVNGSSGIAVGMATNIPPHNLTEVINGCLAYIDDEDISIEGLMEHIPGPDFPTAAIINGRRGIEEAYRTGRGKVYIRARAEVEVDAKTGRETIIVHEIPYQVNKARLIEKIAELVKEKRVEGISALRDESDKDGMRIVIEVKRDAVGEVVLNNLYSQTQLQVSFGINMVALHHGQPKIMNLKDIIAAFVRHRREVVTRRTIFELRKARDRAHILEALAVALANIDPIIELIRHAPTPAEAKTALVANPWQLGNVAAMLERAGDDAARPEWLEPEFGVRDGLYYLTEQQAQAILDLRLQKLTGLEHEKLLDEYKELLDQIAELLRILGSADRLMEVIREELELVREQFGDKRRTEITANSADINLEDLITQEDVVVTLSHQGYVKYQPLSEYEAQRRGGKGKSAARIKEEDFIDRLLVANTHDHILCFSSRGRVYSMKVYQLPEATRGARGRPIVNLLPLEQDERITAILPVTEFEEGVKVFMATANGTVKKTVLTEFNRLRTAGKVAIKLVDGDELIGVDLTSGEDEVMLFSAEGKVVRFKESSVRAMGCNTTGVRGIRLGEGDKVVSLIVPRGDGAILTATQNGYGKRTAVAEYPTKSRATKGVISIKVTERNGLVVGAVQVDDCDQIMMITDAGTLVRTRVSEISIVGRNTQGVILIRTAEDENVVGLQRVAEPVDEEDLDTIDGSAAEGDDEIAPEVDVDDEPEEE
For the compound `CCCNC(=O)Nc1cc(-c2nc(C(F)(F)F)cs2)c(-c2ccc3c(c2)c(=O)c(C(=O)NCCO)cn3CCN2CCOCC2)cn1` [Example 205, N-(2-hydroxyethyl)-1-(2-morpholinoethyl)-4-oxo-6-(6-(3-propylureido)-4-(4-(trifluoromethyl)thiazol-2-yl)pyridin-3-yl)-1,4-dihydroquinoline-3-carboxamide], the inhibition at 1 µM stood at 94%.
In the case of `CCCNC(=O)Nc1cc(-c2nc(C(F)(F)F)cs2)c(-c2ccc3c(c2)c(=O)c(C(=O)NCCO)cn3C2CCOCC2)cn1` [Example 206, N-(2-hydroxyethyl)-4-oxo-6-(6-(3-propylureido)-4-(4-(trifluoromethyl)thiazol-2-yl)pyridin-3-yl)-1-(tetrahydro-2H-pyran-4-yl)-1,4-dihydroquinoline-3-carboxamide] it was 92%.
The value for `CCCNC(=O)Nc1cc(-c2nc(C(F)(F)F)cs2)c(-c2ccc3c(c2)c(=O)c(C(=O)NCCO)cn3CCOC)cn1` [Example 207, N-(2-hydroxyethyl)-1-(2-methoxyethyl)-4-oxo-6-(6-(3-propylureido)-4-(4-(trifluoromethyl)thiazol-2-yl)pyridin-3-yl)-1,4-dihydroquinoline-3-carboxamide] was 93%.
The value for `COCCn1cc(C(=O)NCCO)c(=O)c2cc(-c3cnc(NC(=O)NC(C)C)cc3-c3nc(C(F)(F)F)cs3)ccc21` [Example 208, N-(2-hydroxyethyl)-6-(6-(3-isopropylureido)-4-(4-(trifluoromethyl)thiazol-2-yl)pyridin-3-yl)-1-(2-methoxyethyl)-4-oxo-1,4-dihydroquinoline-3-carboxamide] was 97%; that for `CC(C)NC(=O)Nc1cc(-c2nc(C(F)(F)F)cs2)c(-c2ccc3c(c2)c(=O)c(C(=O)NCCO)cn3C2CCOCC2)cn1` [Example 210, N-(2-hydroxyethyl)-6-(6-(3-isopropylureido)-4-(4-(trifluoromethyl)thiazol-2-yl)pyridin-3-yl)-4-oxo-1-(tetrahydro-2H-pyran-4-yl)-1,4-dihydroquinoline-3-carboxamide] was 93%.
Regarding `CC(C)NC(=O)Nc1cc(-c2nc(C(F)(F)F)cs2)c(-c2ccc3c(c2)c(=O)c(C(=O)NCCO)cn3CCN2CCN(C)CC2)cn1` [Example 212], the inhibition at 1 µM is 94%.
In the case of `CCCNC(=O)Nc1cc(-c2nc(C(F)(F)F)cs2)c(-c2ccc3c(c2)c(=O)c(C(=O)NCCO)cn3CCC2CCN(C)CC2)cn1` [Example 213], the inhibition at 1 µM is 94%.
The value for `CCCNC(=O)Nc1cc(-c2nc(C(F)(F)F)cs2)c(-c2ccc3c(c2)c(=O)c(C(=O)NCCO)cn3CCC2CCOCC2)cn1` [Example 214, N-(2-hydroxyethyl)-4-oxo-6-(6-(3-propylureido)-4-(4-(trifluoromethyl)thiazol-2-yl)pyridin-3-yl)-1-(2-(tetrahydro-2H-pyran-4-yl)ethyl)-1,4-dihydroquinoline-3-carboxamide] was 118%.
The value for `CC(C)NC(=O)Nc1cc(-c2nc(C(F)(F)F)cs2)c(-c2ccc3c(c2)c(=O)c(C(=O)NCCO)cn3CCC2CCN(C)CC2)cn1` [Example 216, N-(2-hydroxyethyl)-6-(6-(3-isopropylureido)-4-(4-(trifluoromethyl)thiazol-2-yl)pyridin-3-yl)-1-(2-(1-methylpiperidin-4-yl)ethyl)-4-oxo-1,4-dihydroquinoline-3-carboxamide] was 109%; that for `CCCNC(=O)Nc1cc(-c2nc(C(F)(F)F)cs2)c(-c2ccc3c(c2)c(=O)c(C(=O)NCCN(C)C)cn3CCN(C)C)cn1` [Example 219, N,1-bis(2-(dimethylamino)ethyl)-4-oxo-6-(6-(3-propylureido)-4-(4-(trifluoromethyl)thiazol-2-yl)pyridin-3-yl)-1,4-dihydroquinoline-3-carboxamide] was 86%; that for `CC(C)NC(=O)Nc1cc(-c2nc(C(F)(F)F)cs2)c(-c2ccc3c(c2)c(=O)c(C(=O)NCCN(C)C)cn3CCC2CCN(C)CC2)cn1` [Example 226] was 94%.
The value for `CC(C)NC(=O)Nc1cc(-c2nc(C(F)(F)F)cs2)c(-c2ccc3c(c2)c(=O)c(C(=O)NCCN(C)C)cn3CCN2CCN(C)CC2)cn1` [Example 227, N-(2-(dimethylamino)ethyl)-6-(6-(3-isopropylureido)-4-(4-(trifluoromethyl)thiazol-2-yl)pyridin-3-yl)-1-(2-(4-methylpiperazin-1-yl)ethyl)-4-oxo-1,4-dihydroquinoline-3-carboxamide] was 91%; that for `CCCNC(=O)Nc1cc(-c2nc(C(F)(F)F)cs2)c(-c2ccc3c(c2)c(=O)c(C(=O)NCCN(C)C)cn3CCC2CCOCC2)cn1` [Example 232, N-(2-(dimethylamino)ethyl)-4-oxo-6-(6-(3-propylureido)-4-(4-(trifluoromethyl)thiazol-2-yl)pyridin-3-yl)-1-(2-(tetrahydro-2H-pyran-4-yl)ethyl)-1,4-dihydroquinoline-3-carboxamide] was 98%.
As for `CCNC(=O)Nc1cc(-c2nc(C(F)(F)F)cs2)c(-c2ccc3c(c2)c(=O)c(C(=O)O)cn3C[C@@H]2CCN(CCN3CCOCC3)C2)cn1` [Example 237, (R)-6-(6-(3-ethylureido)-4-(4-(trifluoromethyl)thiazol-2-yl)pyridin-3-yl)-1-((1-(2-morpholinoethyl)pyrrolidin-3-yl)methyl)-4-oxo-1,4-dihydroquinoline-3-carboxylic acid], the inhibition at 1 µM was 103%.
The value for `CCNC(=O)Nc1cc(-c2nc(C(F)(F)F)cs2)c(-c2ccc3c(c2)c(=O)c(C(=O)O)cn3C[C@H]2CCN(CCN3CCOCC3)C2)cn1` [Example 238, (S)-6-(6-(3-ethylureido)-4-(4-(trifluoromethyl)thiazol-2-yl)pyridin-3-yl)-1-((1-(2-morpholinoethyl)pyrrolidin-3-yl)methyl)-4-oxo-1,4-dihydroquinoline-3-carboxylic acid] was 97%; that for `CCNC(=O)Nc1cc(-c2nc(C(F)(F)F)cs2)c(-c2ccc3c(c2)c(=O)c(C(=O)O)cn3C[C@@H]2CCCNC2)cn1` [Example 242, (R)-1-((1-piperidin-3-yl)methyl)-6-(6-(3-ethylureido)-4-(4-(trifluoromethyl)thiazol-2-yl)pyridin-3-yl)-4-oxo-1,4-dihydroquinoline-3-carboxylic acid] was 104%.
In the case of `CCNC(=O)Nc1cc(-c2nc(C(F)(F)F)cs2)c(-c2ccc3c(c2)c(=O)c(C(=O)O)cn3C[C@H]2CCNC2)cn1` [Example 243, (S)-6-(6-(3-ethylureido)-4-(4-(trifluoromethyl)thiazol-2-yl)pyridin-3-yl)-4-oxo-1-(pyrrolidin-3-ylmethyl)-1,4-dihydroquinoline-3-carboxylic acid] it was 116%.
In the case of `CCNC(=O)Nc1cc(-c2nc(C(F)(F)F)cs2)c(-c2ccc3c(c2)c(=O)c(C(=O)O)cn3[C@@H]2CCNC2)cn1` [Example 244, (R)-6-(6-(3-ethylureido)-4-(4-(trifluoromethyl)thiazol-2-yl)pyridin-3-yl)-4-oxo-1-(pyrrolidin-3-yl)-1,4-dihydroquinoline-3-carboxylic acid], the inhibition at 1 µM came out at 111%.

What is called inhibition is the drop in the measured response relative to a control, in per cent.

Values taken from patent US8283361B2 (AstraZeneca AB, priority 2008, dated 2012).
